A word on the EC50: it is the concentration needed to bring the measured effect to its halfway point.

Consider 20 compounds from US12312356B2, “Anthelmintic heterocyclic compounds” (Boehringer Ingelheim Vetmedica GmbH, priority 2020, dated 2025).

Experiment [1] deals with L4 stage Dirofilaria immitis worms. In words: Screening method to test activity against L4 stage larvae of Dirofilaria immitis (motility, dose response). Format: cell-based. The following applies: 72 h, read-out: EC50 value (motility of L4 larvae).
The test system of experiment [2] is microfilariae of Dirofilaria immitis. In words: Screening method to test activity against microfilaria of Dirofilaria immitis (motility, dose response). Type of experiment: cell-based. The following applies: 72 h, read-out: EC50 value (motility of the microfilaria).

On to `Cc1nc2c(C(C)C)c(C(=O)N[C@H]3CCOc4ccccc43)cnn2c1C(C)(C)C` [Compound 323, 3-tert-butyl-N-[(4S)-3,4-dihydro-2H-1-benzopyran-4-yl]-8-isopropyl-2-methylimidazo[1,2-b]pyridazine-7-carboxamide], for which the figures for the concentration for a half-maximal effect (EC50) in experiment [1] and in experiment [2] were 100 to 1000 nM and 10 to 100 nM, respectively.

Regarding `Cc1nc2c(C(C)C)c(C(=O)N[C@H]3CCOc4ccccc43)cnn2c1-c1cc(Cl)cc(Cl)c1` [Compound 271, 3-(3,5-dichlorophenyl)-N-[(4S)-3,4-dihydro-2H-1-benzopyran-4-yl]-8-isopropyl-2-methylimidazo[1,2-b]pyridazine-7-carboxamide], the concentration for a half-maximal effect (EC50) was < 1 nM in experiment [1] and 1 to 10 nM in experiment [2]. In the same order, the values of `Cc1nc2c(C(C)C)c(C(=O)N[C@H]3CCOc4ccccc43)cnn2c1N1CCCCC1` [Compound 324, N-[(4S)-3,4-dihydro-2H-1-benzopyran-4-yl]-8-isopropyl-2-methyl-3-(piperidin-1-yl)imidazo[1,2-b]pyridazine-7-carboxamide] are 1 to 10 nM and < 1 nM. With `CC(C)c1c(C(=O)N[C@H]2CCOc3ccc(F)cc32)cnn2c(Cl)c(-c3cc(Cl)cc(Cl)c3)nc12` [Compound 304-0, 3-chloro-2-(3,5-dichlorophenyl)-N-[(4S)-6-fluoro-3,4-dihydro-2H-1-benzopyran-4-yl]-8-isopropylimidazo[1,2-b]pyridazine-7-carboxamide], the EC50 in experiment [1] was 1000 to 10000 nM. Regarding `CC(=O)c1nc2c(C(C)C)c(C(=O)N[C@H]3CCOc4ccccc43)cnn2c1-c1cc(Cl)cc(Cl)c1` [Compound 558, 2-acetyl-3-(3,5-dichlorophenyl)-N-[(4S)-3,4-dihydro-2H-1-benzopyran-4-yl]-8-isopropylimidazo[1,2-b]pyridazine], in experiment [2], the concentration for a half-maximal effect (EC50) lay in the range of 10 to 100 nM. `Cc1nc2c(C(C)C)c(C(=O)N[C@H]3CCOc4ccccc43)cnn2c1C1=CCC(C(F)(F)F)CC1` (stereo partly drawn) [Compound 327, N-[(4S)-3,4-dihydro-2H-1-benzopyran-4-yl]-8-isopropyl-2-methyl-3-[4-(trifluoromethyl)cyclohex-1-en-1-yl]imidazo[1,2-b]pyridazine-7-carboxamide]: the 50% effective concentration (EC50) in experiment [1] is 1 to 10 nM.

As to `Cc1nc2c(C(C)C)c(C(=O)N[C@H]3CCOc4ccccc43)cnn2c1-c1cc(F)cc(F)c1` [Compound 175, 3-(3,5-difluorophenyl)-N-[(4S)-3,4-dihydro-2H-1-benzopyran-4-yl]-8-isopropyl-2-methylimidazo[1,2-b]pyridazine-7-carboxamide], the EC50 in experiment [1] and in experiment [2] was 1 to 10 nM in each case. `Cc1nc2c(C(C)C)c(C(=O)N[C@H]3CCOc4ccccc43)cnn2c1CC(C)C` [Compound 323-0, N-[(4S)-3,4-dihydro-2H-1-benzopyran-4-yl]-2-methyl-3-(2-methylpropyl)-8-(propan-2-yl)imidazo[1,2-b]pyridazine-7-carboxamide]: the EC50 in experiment [1] and in experiment [2] was 10 to 100 nM throughout. As to `Cc1nc2c(C(C)(C)F)c(C(=O)N[C@H]3CCOc4ccccc43)cnn2c1-c1cc(F)cc(F)c1` [Compound 277, 3-(3,5-difluorophenyl)-N-[(4S)-3,4-dihydro-2H-1-benzopyran-4-yl]-8-(2-fluoropropan-2-yl)-2-methylimidazo[1,2-b]pyridazine-7-carboxamide], the EC50 in experiment [1] and in experiment [2] was 1 to 10 nM throughout.

On to `Cc1nc2c(C(C)C)c(NC(=O)[C@H]3CCOc4ccccc43)cnn2c1-c1cc(F)cc(F)c1` [Compound 320, (4S)—N-[3-(3,5-difluorophenyl)-8-isopropyl-2-methylimidazo[1,2-b]pyridazin-7-yl]-3,4-dihydro-2H-1-benzopyran-4-carboxamide], for which the EC50 in experiment [1] lay in the range of 10 to 100 nM. Take `O=C(N[C@H]1CCOc2ccccc21)c1cnn2c(-c3cc(Cl)cc(Cl)c3)c(C(F)(F)F)nc2c1N1CCOCC1` [Compound 450, 3-(3,5-dichlorophenyl)-N-[(4S)-3,4-dihydro-2H-1-benzopyran-4-yl]-8-(morpholin-4-yl)-2-(trifluoromethyl)imidazo[1,2-b]pyridazine-7-carboxamide]: the concentration giving a half-maximal response (EC50) in experiment [2] lay in the range of 100 to 1000 nM. On the same count and under the same terms, the result for `C=C(C)c1c(C(=O)N[C@H]2CCOc3ccccc32)cnn2c(-c3cc(F)cc(F)c3)c(C)nc12` [Compound 279, 3-(3,5-difluorophenyl)-N-[(4S)-3,4-dihydro-2H-1-benzopyran-4-yl]-2-methyl-8-(prop-1-en-2-yl)imidazo[1,2-b]pyridazine-7-carboxamide] reads 10 to 100 nM. The same measure, in the same setting: the result for `CC(C)c1c(C(=O)N[C@H]2CCOc3ccccc32)cnn2c(-c3cc(Cl)cc(Cl)c3)cnc12` [Compound 352, 3-(3,5-dichlorophenyl)-N-[(4S)-3,4-dihydro-2H-1-benzopyran-4-yl]-8-isopropylimidazo[1,2-b]pyridazine-7-carboxamide] reads 10 to 100 nM; that for `O=C(N[C@H]1CCOc2ccccc21)c1cnn2c(-c3cc(Cl)cc(Cl)c3)cnc2c1N1CCOCC1` [Compound 511, 3-(3,5-dichlorophenyl)-N-[(4S)-3,4-dihydro-2H-1-benzopyran-4-yl]-8-(morpholin-4-yl)imidazo[1,2-b]pyridazine-7-carboxamide], 10 to 100 nM. With `Cc1nc2c(C(C)C)c(NC(=O)[C@@H]3CCOc4ccccc43)cnn2c1-c1cc(F)cc(F)c1` [Compound 320-0, (4R)—N-[3-(3,5-difluorophenyl)-8-isopropyl-2-methylimidazo[1,2-b]pyridazin-7-yl]-3,4-dihydro-2H-1-benzopyran-4-carboxamide], the EC50 in experiment [1] lay in the range of 1000 to 10000 nM. On the same count and under the same terms, the result for `Cc1nc2c(C(C)C)c(C(=O)N[C@H]3CCOc4ccccc43)cnn2c1[C@H]1CC[C@H](C(F)(F)F)CC1` [Compound 326, N-[(4S)-3,4-dihydro-2H-1-benzopyran-4-yl]-8-isopropyl-2-methyl-3-[(1r,4r)-4-(trifluoromethyl)cyclohexyl]imidazo[1,2-b]pyridazine-7-carboxamide] reads 10 to 100 nM; that for `Cc1nc2c(C(C)C)c(C(=O)N[C@H]3CCOc4ccccc43)cnn2c1C#N` [Compound 366, 3-cyano-N-[(4S)-3,4-dihydro-2H-1-benzopyran-4-yl]-8-isopropyl-2-methylimidazo[1,2-b]pyridazine-7-carboxamide], 1000 to 10000 nM.

`Cc1nc2c(C(C)(C)C)c(C(=O)N[C@H]3CCOc4ccccc43)cnn2c1-c1cc(Cl)cc(Cl)c1` [Compound 306, 8-tert-butyl-3-(3,5-dichlorophenyl)-N-[(4S)-3,4-dihydro-2H-1-benzopyran-4-yl]-2-methylimidazo[1,2-b]pyridazine-7-carboxamide]: the EC50 in experiment [1] was < 1 nM; in experiment [2], 1 to 10 nM. As for `Cc1nc2c(C(C)(C)C)c(C(=O)NN3CCOc4ccccc43)cnn2c1-c1cc(Cl)cc(Cl)c1` [Compound 614, 8-tert-butyl-3-(3,5-dichlorophenyl)-N-(2,3-dihydro-1,4-benzoxazin-4-yl)-2-methylimidazo[1,2-b]pyridazine-7-carboxamide], the EC50 in experiment [2] is 1 to 10 nM.

As to `Cc1nc2c(C(C)C)c(C(=O)N[C@H]3CCOc4ccccc43)cnn2c1[C@H]1CC[C@@H](C(F)(F)F)CC1` [Compound 326-0, N—((S)-chroman-4-yl)-8-isopropyl-2-methyl-3-((1s,4R)-4-(trifluoromethyl)cyclohexyl)imidazo[1,2-b]pyridazine-7-carboxamide], the EC50 in experiment [1] lay in the range of 1 to 10 nM; in experiment [2], 10 to 100 nM.
